The results in this text go back to ChEMBL document CHEMBL3217581, “Synthesis and selective inhibition of human monoamine oxidases of a large scaffold of (4,5-substituted-thiazol-2-yl)hydrazones” (Medchemcomm, 2010).

Each structure is given as a SMILES string.

In assay [1] the target is T1, Amine oxidase [flavin-containing] A (Homo sapiens, UniProt P21397).
T1 sequence (P21397 whole entry): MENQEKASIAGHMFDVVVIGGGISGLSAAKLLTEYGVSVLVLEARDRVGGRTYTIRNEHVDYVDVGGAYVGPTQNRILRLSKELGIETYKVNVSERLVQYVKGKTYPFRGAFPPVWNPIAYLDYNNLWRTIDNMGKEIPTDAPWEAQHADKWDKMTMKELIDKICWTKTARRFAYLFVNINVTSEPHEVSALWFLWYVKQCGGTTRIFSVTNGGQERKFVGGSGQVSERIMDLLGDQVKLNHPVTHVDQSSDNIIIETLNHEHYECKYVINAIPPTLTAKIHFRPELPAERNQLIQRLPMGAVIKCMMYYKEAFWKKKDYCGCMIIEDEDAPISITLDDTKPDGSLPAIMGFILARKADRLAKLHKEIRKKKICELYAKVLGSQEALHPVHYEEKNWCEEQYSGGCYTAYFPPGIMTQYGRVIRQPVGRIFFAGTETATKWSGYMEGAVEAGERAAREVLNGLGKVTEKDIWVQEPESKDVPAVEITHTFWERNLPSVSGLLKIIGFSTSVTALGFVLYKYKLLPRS
In words: Inhibition of human MAO-A expressed in baculovirus infected BTI-TN-5B1-4 insect cells using p-tyramine as substrate assessed as hydrogen peroxide production by fluorimetric method.

Assay [2] deals with T2, Amine oxidase [flavin-containing] B (Homo sapiens, UniProt P27338).
T2 sequence (P27338 whole entry): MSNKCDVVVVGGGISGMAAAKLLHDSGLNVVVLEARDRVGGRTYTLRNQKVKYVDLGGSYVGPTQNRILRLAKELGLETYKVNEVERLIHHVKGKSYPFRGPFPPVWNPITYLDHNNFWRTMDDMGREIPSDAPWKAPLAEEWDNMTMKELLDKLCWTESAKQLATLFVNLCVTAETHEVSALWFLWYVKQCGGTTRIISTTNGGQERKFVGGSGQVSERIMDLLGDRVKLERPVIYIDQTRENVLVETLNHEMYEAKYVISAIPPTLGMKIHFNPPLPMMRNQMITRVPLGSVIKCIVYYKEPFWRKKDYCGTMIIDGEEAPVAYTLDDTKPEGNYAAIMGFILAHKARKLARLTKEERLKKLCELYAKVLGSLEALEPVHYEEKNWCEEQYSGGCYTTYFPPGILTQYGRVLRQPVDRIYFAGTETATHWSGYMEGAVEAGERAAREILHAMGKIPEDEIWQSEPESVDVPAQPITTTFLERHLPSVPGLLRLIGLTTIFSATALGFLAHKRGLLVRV
In words: biochemical. Type of assay: cell-based, BTI-TN-5B1-4.
Description: Inhibition of human MAO-B expressed in baculovirus infected BTI-TN-5B1-4 insect cells using p-tyramine as substrate assessed as hydrogen peroxide production by fluorimetric method

The species entered for a further assay is Homo sapiens. Description: Selectivity index, ratio of IC50 for human MAO-B to IC50 for human MAO-A.

In general, IC50 refers to the midpoint of a concentration-inhibition curve.

Regarding `Cc1sc(NN=C2CCCCCC2)nc1-c1ccccc1`, the results for the concentration for half-maximal inhibition (IC50) in assay [1] and in assay [2] were 2110 nM and 1960 nM, respectively. In addition, in the assay listed under Homo sapiens, the Ratio IC50 is 0.9.
In the case of `Cc1sc(N/N=C/c2cccnc2)nc1-c1ccccc1`, the IC50 stood at 1830 nM in assay [1] and 2220 nM in assay [2]. Also, the Ratio IC50 in the assay listed under Homo sapiens turned out to be 1.22.
`C(=N\Nc1nc(-c2ccc3ccccc3c2)cs1)/c1cccs1`: the IC50 in assay [1] turned out to be 2710 nM; in assay [2] it was 4630 nM. For the same compound, the Ratio IC50 in the assay listed under Homo sapiens turned out to be 1.72.
Taken in the same sequence, the figures for `CC(C)=NNc1nc(-c2ccccc2)c(C)s1` were 2550 nM, 5280 nM and 2.08.
On the same counts, the results for `CCCCC/C(C)=N\Nc1nc(-c2ccccc2)c(C)s1` are 3690 nM, 6000 nM and 1.64.
Taken in the same sequence, the figures for `C(=N\Nc1nc(-c2ccc3ccccc3c2)cs1)/c1cccc2ccccc12` were 16400 nM, 22900 nM and 1.41.
For the compound `CCC(CC)=NNc1nc(-c2ccccc2)c(C)s1`, the half-maximal inhibitory concentration (IC50) in assay [1] turned out to be 1650 nM; in assay [2], 2450 nM. Further, in the assay listed under Homo sapiens, the Ratio IC50 was found to be 1.49.
Take `C/C(=N\Nc1nc(-c2ccccc2)c(C)s1)c1ccco1`: the figures for the IC50 in assay [1] and in assay [2] were 1680 nM and 2100 nM, respectively. The Ratio IC50 in the assay filed under Homo sapiens is 1.25.
Take `Cc1sc(NN=C2CCC(C)CC2)nc1-c1ccccc1` (configuration not stated): the IC50 in assay [1] (bti-tn-5b1-4) stood at 3900 nM; in assay [2] (bti-tn-5b1-4) it was 2520 nM. The Ratio IC50 in the assay filed under Homo sapiens was 0.66.
Take `Cc1sc(N/N=C/c2cccs2)nc1-c1ccccc1`: the results for the IC50 in assay [1] and in assay [2] were 3380 nM and 3050 nM, respectively. In the assay filed under Homo sapiens, the Ratio IC50 came out at 0.9.
`CC/C(C)=N\Nc1nc(-c2ccccc2)c(C)s1`: the results for the IC50 in assay [1] and in assay [2] were 1550 nM and 1530 nM, respectively. In the assay listed under Homo sapiens, the Ratio IC50 is 1.
As for `Cc1sc(N/N=C/c2c[nH]c3ccccc23)nc1-c1ccccc1`, the half-inhibitory concentration (IC50) in assay [1] was 3120 nM; in assay [2], 1400 nM. For the same compound, in the assay filed under Homo sapiens, the Ratio IC50 amounted to 0.45.
Taken in the same sequence, the figures for `CC/C(C)=N\Nc1nc(-c2ccc3ccccc3c2)cs1` were 1740 nM, 2650 nM and 1.52.
Turning to `CCCC/C(CC)=N\Nc1nc(-c2ccccc2)c(C)s1`, the IC50 was 4130 nM in assay [1] and 4780 nM in assay [2]. Also, the Ratio IC50 in the assay filed under Homo sapiens was 1.16.
Taken in the same sequence, the figures for `C/C(=N\Nc1nc(-c2ccccc2)c(C)s1)c1ccccn1` were 2390 nM, 880 nM and 0.37.
On the same counts, the results for `C=CCC/C(C)=N\Nc1nc(-c2ccc3ccccc3c2)cs1` are 1370 nM, 3940 nM and 2.86.
For `C/C(=N\Nc1nc(-c2ccc3ccccc3c2)cs1)c1cccs1`, the results for the IC50 in assay [1] and in assay [2] were 3730 nM and 14500 nM, respectively. Further, the Ratio IC50 in the assay listed under Homo sapiens was 3.85.
In the case of `CC1CCC/C(=N\Nc2nc(-c3ccc4ccccc4c3)cs2)C1` (configuration not stated), the half-inhibitory concentration (IC50) in assay [1] worked out at 1940 nM; in assay [2], 10800 nM. Also, the Ratio IC50 in the assay listed under Homo sapiens was determined as 5.56.
Taken in the same sequence, the figures for `CCC/C(C)=N\Nc1nc(-c2ccc3ccccc3c2)cs1` were 1810 nM, 3110 nM and 1.72.
Taken in the same sequence, the figures for `Cc1sc(NN=C2CCCC2)nc1-c1ccccc1` were 550 nM, 1410 nM and 2.56.
On the same counts, the results for `C/C(=N\Nc1nc(-c2ccc3ccccc3c2)cs1)c1ccco1` are 1770 nM, 2290 nM and 1.3.
Take `C/C(=N\Nc1nc(-c2ccccc2)c(C)s1)C1CCCCC1`: the half-inhibitory concentration (IC50) was 7650 nM in assay [1] and 6140 nM in assay [2]. For the same compound, the Ratio IC50 in the assay filed under Homo sapiens amounted to 0.83.
On the same counts, the results for `C(=N\Nc1nc(-c2ccc3ccccc3c2)cs1)/c1cccnc1` are 2570 nM, 4760 nM and 1.85.
Regarding `Cc1sc(N/N=C2\CCCC2C)nc1-c1ccccc1` (configuration not stated), the half-inhibitory concentration (IC50) in assay [1] turned out to be 2440 nM; in assay [2], 1330 nM. In the assay filed under Homo sapiens, the Ratio IC50 was 0.56.
On the same counts, the results for `CCC/C(C)=N\Nc1nc(-c2ccccc2)c(C)s1` are 2520 nM, 2310 nM and 0.9.
Taken in the same sequence, the figures for `CCCCCC/C(C)=N\Nc1nc(-c2ccccc2)c(C)s1` were 3910 nM, 3750 nM and 1.04.
Taken in the same sequence, the figures for `C/C(CC(C)C)=N/Nc1nc(-c2ccccc2)c(C)s1` were 2400 nM, 2780 nM and 1.16.
In the case of `CCCCC/C(C)=N\Nc1nc(-c2ccc3ccccc3c2)cs1`, the IC50 amounted to 2450 nM in assay [1] and 16000 nM in assay [2]. Besides, the Ratio IC50 in the assay filed under Homo sapiens was found to be 6.67.
Taken in the same sequence, the figures for `C(=N\Nc1nc(-c2ccc3ccccc3c2)cs1)/c1c[nH]c2ccccc12` were 2340 nM, 5990 nM and 2.56.
As to `CC1CCC/C1=N\Nc1nc(-c2ccc3ccccc3c2)cs1` (configuration not stated), the IC50 in assay [1] was determined as 2600 nM; in assay [2], 2880 nM. The Ratio IC50 in the assay listed under Homo sapiens worked out at 1.11.
Taken in the same sequence, the figures for `C(=N\Nc1nc(-c2ccc3ccccc3c2)cs1)/c1ccco1` were 2040 nM, 2760 nM and 1.35.
Regarding `C/C(=N\Nc1nc(-c2ccccc2)c(C)s1)c1ccccc1`, the IC50 in assay [1] came to 2240 nM; in assay [2] it was 2230 nM. Also, the Ratio IC50 in the assay filed under Homo sapiens is 1.
On the same counts, the results for `CC1CC/C(=N\Nc2nc(-c3ccc4ccccc4c3)cs2)C1` (configuration not stated) are 1910 nM, 3490 nM and 1.82.
On the same counts, the results for `Cc1sc(N/N=C/c2ccc3c(c2)OCO3)nc1-c1ccccc1` are 8630 nM, 6570 nM and 0.76.
For the compound `Cc1sc(N/N=C2\CCC(C)C2)nc1-c1ccccc1` (configuration not stated), the IC50 in assay [1] stood at 2290 nM; in assay [2], 2310 nM. The Ratio IC50 in the assay filed under Homo sapiens was 1.01.
On the same counts, the results for `CC(C)=NNc1nc(-c2ccc3ccccc3c2)cs1` are 1560 nM, 3550 nM and 2.27.
On the same counts, the results for `CCC(CC)=NNc1nc(-c2ccc3ccccc3c2)cs1` are 1860 nM, 2320 nM and 1.25.
As for `C/C(=N\Nc1nc(-c2ccc3ccccc3c2)cs1)c1cc2ccccc2oc1=O`, the IC50 in assay [1] was determined as 6470 nM; in assay [2] it was 10800 nM. The Ratio IC50 in the assay filed under Homo sapiens was determined as 1.67.
Taken in the same sequence, the figures for `CCCC/C(CC)=N\Nc1nc(-c2ccc3ccccc3c2)cs1` were 2930 nM, 3760 nM and 1.28.
On to `Cc1sc(N/N=C2\CCCCC2C)nc1-c1ccccc1` (configuration not stated), for which the IC50 amounted to 3230 nM in assay [1] and 1110 nM in assay [2]. Also, in the assay filed under Homo sapiens, the Ratio IC50 was 0.34.
For the compound `C/C(=N\Nc1nc(-c2ccccc2)c(C)s1)c1cc2ccccc2oc1=O`, the IC50 in assay [1] was found to be 9180 nM; in assay [2], 3020 nM. For the same compound, the Ratio IC50 in the assay filed under Homo sapiens turned out to be 0.33.
On the same counts, the results for `C/C(=N\Nc1nc(-c2ccc3ccccc3c2)cs1)c1ccccc1` are 2000 nM, 6230 nM and 3.13.
As to `C=CCC/C(C)=N\Nc1nc(-c2ccccc2)c(C)s1`, the figures for the half-maximal inhibitory concentration (IC50) in assay [1] and in assay [2] were 6970 nM and 8850 nM, respectively. Also, the Ratio IC50 in the assay listed under Homo sapiens was 1.27.
`Cc1sc(N/N=C2\CCCC(C)C2)nc1-c1ccccc1` (configuration not stated): the IC50 is 3630 nM in assay [1] and 2880 nM in assay [2]. In addition, in the assay listed under Homo sapiens, the Ratio IC50 turned out to be 0.76.
On the same counts, the results for `Cc1sc(NN=C2CCCCC2)nc1-c1ccccc1` are 1780 nM, 1790 nM and 1.01.
Take `C/C(CC(C)C)=N/Nc1nc(-c2ccc3ccccc3c2)cs1`: the IC50 in assay [1] is 2310 nM; in assay [2] it was 3560 nM. Besides, the Ratio IC50 in the assay listed under Homo sapiens amounted to 1.54.
Regarding `Cc1sc(N/N=C/c2ccncc2)nc1-c1ccccc1`, the IC50 in assay [1] is 8290 nM; in assay [2] it was 1370 nM. Moreover, in the assay filed under Homo sapiens, the Ratio IC50 was found to be 0.16.
With `C/C(=N\Nc1nc(-c2ccccc2)c(C)s1)c1cccs1`, the figures for the IC50 in assay [1] and in assay [2] were 2670 nM and 2340 nM, respectively. Besides, the Ratio IC50 in the assay listed under Homo sapiens was 0.9.
In the case of `Cc1sc(N/N=C/c2ccco2)nc1-c1ccccc1`, the IC50 in assay [1] stood at 1790 nM; in assay [2] it was 3060 nM. Further, in the assay filed under Homo sapiens, the Ratio IC50 came out at 1.72.
